Here are results for two compounds from patent publication US11013722B2, “Therapeutic agent for dyslipidemia” (KOWA COMPANY, LTD., priority 2012, dated 2021).

Molecules are shown by their SMILES.

The subject of assay [1] is High-Cholesterol Diet-Fed Rats. The assay is described as follows: Example 1: combined effect of compound A and ezetimibe, plasma HDL-C. To be noted: for HDL-C Ave.: plasma, oral once a day, one week; for HDL-C Rate of Change: vs control. Type of assay: in vivo, SD rats. How it is done:
The synergistic effect was determined by using Burgi's formula (if the relative level in the combined group is larger than the value of the product of the relative level of single agent A and the relative level of single agent B, the synergistic effect is positive).
(§1) Group 2: Compound A 0.1 mg/kg
Group 3: Ezetimibe 0.003 mg/kg
Group 4: Compound A 0.1 mg/kg and ezetimibe 0.003 mg/kg
(§2) The results were shown as the mean±standard deviation.

Assay [2] relates to High-Cholesterol Diet-Fed Rats. Nature of the assay: Example 2: combined effect of compound A and ezetimibe, plasma TC and lipoprotein cholesterol. It counts as in vivo, SD rats. On the procedure:
The synergistic effect was determined by using Burgi's formula (in a case where a level lower than that in the control group is indicated in a drug administration group, that is, when the evaluation of an agent to the TC, VLDL-C, or LDL-C is performed, if the relative level in the combined group is smaller than the value of the product of the relative level of single agent A and the relative level of single agent B, the synergistic effect exists. In a case where a level higher than that in the control group is indicated in a drug administration group, that is, when the evaluation of an agent to the HDL-C is performed, if the relative level in the combined group is larger than the value of the product of the relative level of single agent A and the relative level of single agent B, the synergistic effect exists).
as §1
Group 3: Ezetimibe 0.01 mg/kg […]
Group 5: Ezetimibe 0.1 mg/kg […]
as §2

For the compound `O=C1[C@H](CC[C@H](O)c2ccc(F)cc2)[C@@H](c2ccc(O)cc2)N1c1ccc(F)cc1` [Ezetimibe, (3R,4S)-1-(4-fluorophenyl)-3-{(3S)-3-(4-fluorophenyl)-3-hydroxypropyl}-4-(4-hydroxyphenyl)azetidin-2-one], in assay [1] (Ezetimibe 0.003 mg/kg alone), the “Effect on HDL-C level” value is recorded as “apparent effects were not recognized”, the “HDL-C relative level to the control group” value worked out at 1.022, the “HDL-C Ave.” value stood at 24.6 and the “HDL-C Rate of Change” value came out at 2.2%. For the same compound, in assay [2] (Ezetimibe 0.01 mg/kg alone), the “HDL-C Relative Level (to Control)” value is 0.910, the “LDL-C Relative Level (to Control)” value came to 0.955, the “TC Relative Level (to Control)” value is given as 0.898 and the “VLDL-C Relative Level (to Control)” value stood at 0.719. Besides, in assay [2] (Ezetimibe 0.1 mg/kg alone), the “HDL-C Relative Level (to Control)” value stood at 1.100, the “LDL-C Relative Level (to Control)” value stood at 0.720, the “TC Relative Level (to Control)” value is given as 0.555 and the “VLDL-C Relative Level (to Control)” value stood at 0.262.
Consider `CC[C@@H](Oc1cccc(CN(CCCOc2ccc(OC)cc2)c2nc3ccccc3o2)c1)C(=O)O` [Compound A, (R)-2-[3-[[N-(benzoxazol-2-yl)-N-3-(4-methoxyphenoxy)propyl]aminomethyl]phenoxy]butyric acid], for which, in assay [1] (Compound A 0.1 mg/kg alone), the “Effect on HDL-C level” value was “apparent effects were not recognized”, the “HDL-C relative level to the control group” value came to 1.010, the “HDL-C Ave.” value was 24.3 and the “HDL-C Rate of Change” value was 1.0%. In assay [2] (Compound A 0.1 mg/kg alone), the “HDL-C Relative Level (to Control)” value came out at 1.021, the “LDL-C Relative Level (to Control)” value stood at 0.971, the “TC Relative Level (to Control)” value came to 0.956 and the “VLDL-C Relative Level (to Control)” value is 0.827.
